Test results from patent US7279565B2, “Molecular regulatory circuits to achieve sustained activation of genes of interest by a single stress” (priority 1998, dated 2007).

Assays:
Type in all cases: cell-based
[1] = target: T1, transcription factor GLP65 (Homo sapiens, UniProt P06401); assay: Molecular circuit Hsp70/GAL4-GLP65 + GAL4-fLuc in co-transfected HeLa cells, firefly luciferase assay; conditions: 10 nM mifepristone with or without heat treatment 43-44° C. for 30-60 min, assayed two or three days later, FIG. 6B
T1 construct: expressed in transfected cells; host or cells: human HeLa cells, transient co-transfection
T1 sequence (P06401 679-913 limits assumed): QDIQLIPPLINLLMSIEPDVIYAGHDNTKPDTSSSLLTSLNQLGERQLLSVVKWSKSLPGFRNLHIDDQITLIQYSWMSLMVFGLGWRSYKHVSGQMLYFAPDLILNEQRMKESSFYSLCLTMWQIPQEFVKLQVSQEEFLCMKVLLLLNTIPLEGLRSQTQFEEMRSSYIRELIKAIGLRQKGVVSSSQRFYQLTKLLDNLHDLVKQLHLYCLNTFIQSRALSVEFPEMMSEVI
Method: (§1) To test the molecular circuits outlined in FIG. 6A, human HeLa cells were co-transfected with appropriate amounts of Hsp70/GAL4-GLP65 and GAL4-fLuc or GAL4-hGH using Lipofectamine™ reagent (Life Technologies). For correction of differences in transfection efficiency, a small amount of pRL-CMV expressing a Renilla luciferase was also included in transfection mixtures. One day after transfection, cultures were either left untreated, were administered 10 nM mifepristone, were heat-treated (43-44° C. for 30-60 min), or were administered mifepristone and subjected to heat treatment. Two or three days later, cells were harvested and assayed for firefly luciferase activity using the Dual Luciferase Reporter Assay System (Promega Corp.) or for hGH activity using an ELISA kit distributed by Roche, respectively.

[2] = target: T1, transcription factor GLP65; assay: Molecular circuit Hsp70/GAL4-GLP65 + GAL4-hGH in co-transfected HeLa cells, hGH ELISA; conditions: 10 nM mifepristone with or without heat treatment 43-44° C. for 30-60 min, assayed two or three days later, FIG. 6C
Method: as §1

[3] = target: T2, transcription factor GLP65 (Homo sapiens, UniProt P06401+Q04206); assay: Stable HeLa-CAT line with genomic GAL4-fLuc and Hsp70/GAL4-GLP65-RKC transactivator, firefly luciferase assay; conditions: stable HeLa-CAT clonal line; mifepristone and/or heat treatment at 43° C.; assayed one day later; FIG. 7
T2 construct: expressed in transfected cells
Method: HeLa-CAT cells were cotransfected with GAL4-fLuc and Hsp70/GAL4-GLP65-RKC-neo (4:1 molar ratio), and transformants were selected using 400 μg/ml G418. Clonal lines were isolated. […] In the experiment shown in the Figure, parallel cultures of the cell line were either left untreated, or were heat-treated at 43° C. for the times indicated, exposed to mifepristone at the concentrations indicated, or both heat-treated and provided mifepristone. One day later, cells were harvested and assayed for firefly luciferase activity. […] Note that relative firefly luciferase activities are presented as fractions of the highest activity in the experiment.

[4] = test system: EcR/RXR; assay: Firefly luciferase reporter assay of the Hsp70/E/GRE combination promoter in transfected EcR-293 cells; conditions: EcR-293 cells transfected with Hsp70/E/GRE-fLuc; ponasterone A for 1-2 days
Method: To test the Hsp70/E/GRE combination promoter and compare it with the hsp70B and E/GRE promoters, EcR-293 cells were co-transfected using Lipofectamine™ reagent (Life Technologies) with Hsp70/E/GRE-fLuc, Hsp70-fLuc or E/GRE-fLuc and pRL-CMV containing a constitutively expressed Renilla luciferase gene. One day after transfection, parallel cultures were either left untreated or were subjected to a heat treatment at 43-44° C. for 30 min or to ponasterone A (Invitrogen Corp.) for 1-2 days. Cells were harvested (after ponasterone exposure or 6-7 h after heat treatment), and firefly luciferase activities were determined using the Dual Luciferase Reporter System (Promega Corp.). […] EcR-293 cells expressing activatable EcR/RXR were obtained from Invitrogen Corporation and were cultured according to the manufacturer's instructions.

T2 sequence (P06401+Q04206 fused): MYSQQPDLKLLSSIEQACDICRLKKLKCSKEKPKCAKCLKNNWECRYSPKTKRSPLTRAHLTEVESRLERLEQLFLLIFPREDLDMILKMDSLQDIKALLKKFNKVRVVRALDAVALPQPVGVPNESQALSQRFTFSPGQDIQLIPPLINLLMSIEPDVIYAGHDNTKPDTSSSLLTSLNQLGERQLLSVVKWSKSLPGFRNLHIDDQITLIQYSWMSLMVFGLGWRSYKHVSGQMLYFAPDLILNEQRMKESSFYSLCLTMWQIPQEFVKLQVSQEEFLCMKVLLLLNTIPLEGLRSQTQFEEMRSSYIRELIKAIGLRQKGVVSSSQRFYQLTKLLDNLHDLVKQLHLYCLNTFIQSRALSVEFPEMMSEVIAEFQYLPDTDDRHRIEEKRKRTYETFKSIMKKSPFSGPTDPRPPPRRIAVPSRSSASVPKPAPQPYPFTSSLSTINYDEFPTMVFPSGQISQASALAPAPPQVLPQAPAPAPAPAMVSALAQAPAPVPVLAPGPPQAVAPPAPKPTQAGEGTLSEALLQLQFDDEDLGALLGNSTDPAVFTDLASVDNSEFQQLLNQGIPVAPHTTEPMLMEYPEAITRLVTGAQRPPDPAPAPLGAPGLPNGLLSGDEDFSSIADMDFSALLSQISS

SMILES: CC#C[C@]1(O)CC[C@H]2[C@@H]3CCC4=CC(=O)CCC4=C3[C@@H](c3ccc(N(C)C)cc3)C[C@@]21C [mifepristone]
- expression of fLuc gene (relative firefly luciferase activity) [1]: essentially silent, except when the cells containing the respective gene switches were stressed (heat treatment) as well as were administered mifepristone
- expression of hGH gene (relative hGH activity) [2]: essentially silent, except when the cells containing the respective gene switches were stressed (heat treatment) as well as were administered mifepristone
- firefly luciferase activity of genomic luciferase gene [3]: Elevated levels of luciferase activity were only measured in cells that were both administered mifepristone and had been subjected to heat treatment

SMILES: CC(C)CC[C@@H](O)[C@](C)(O)[C@H]1CC[C@@]2(O)C3=CC(=O)[C@@H]4C[C@@H](O)[C@@H](O)C[C@]4(C)[C@H]3CC[C@]12C [ponasterone A]
- firefly luciferase activity (induction of the Hsp70/E/GRE combination promoter) [4]: strongly inducible by heat and ponasterone A
